According to patent US10392422B2, “Macrocyclic broad spectrum antibiotics” (priority 2014, dated 2019):
In brackets after ≈: the same amount, converted by molar mass. Like-named read-outs stand apart in the source and are kept apart here.

Key:
[1] = test system: Escherichia coli MC4100 harboring the IMP4213; experiment: MIC, broth micro-dilution technique (CLSI); type: cell-based; details: Escherichia coli, 22 h
Method in brief: (§1)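 CLSI broth microdilution in cation-adjusted Mueller Hinton broth with 0.002% v/v Tween-80. Compounds were serially 2-fold diluted over 10 concentrations from 64 μg/ml, or from 4 μg/mL in a modified protocol; inoculum at final OD600 0.0005, incubated 35° C for 22 hours.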

[2] = test system: Methicillin Resistant Staphylococcus aureus strain USA 300 (NRS384); experiment: MIC, broth micro-dilution technique (CLSI); type: cell-based; details: Staphylococcus aureus, 22 h, read-out: MIC (μg/mL) S. aureus
Method in brief: as §1

[3] = test system: MRSA COL (NRS100); experiment: MIC, broth micro-dilution technique (CLSI); type: cell-based, Staphylococcus aureus; details: Staphylococcus aureus, 22 h, read-out: MIC (μg/mL) (COL)
Method in brief: as §1

[4] = test system: MRSA strain COL; experiment: Neutropenic thigh infection model, intravenous infusion; type: in vivo, CD-1 mice; details: Compound 115 (Css 2 or 6.4 ug/mL) co-dosed with imipenem (Css 0.3 μg/mL), infused 23 hours; 24 hours post infection; compared with either single agent; FIG. 3
Description: Jugular vein cannulated CD-1 mice were subjected to induced neutropenia (<100 cells/mm^3) by injecting 150 mg/kg and 100 mg/kg cyclophosphamide at day −5 and day −2 respectively. At day −1, saline was infused at […] for 12 hours using Harvard Apparatus PHD 2000 Infusion pumps. At day 0, mice were infected in the thigh muscle with MRSA strain COL 4×10^5 CFU/50 μL. Four test groups and one vehicle group began dosing at 1 hour post infection:
Group 1 was the vehicle control (3% HP-beta-cyclodextrin in PBS)
Group 2 was the imipenem (Imp) group dosed at a concentration of 0.21 mg/mL solution, infused at 80 μL/hour for 23 hours, with a target steady-state concentration (Css) of 0.3 μg/mL.
Group 3 was the SpsB inhibitor Compound 115 group dosed at a concentration of 2.14 mg/mL solution, infused at 80 μL/hour for 23 hours to achieve a steady state concentration (Css) of 6.4 ug/mL.
Group 4 was the SpsB inhibitor Compound 115 group dosed at 0.67 mg/mL solution (Css 2 ug/mL) co-dosed with imipenem at a concentration of 0.21 mg/mL (Css of 0.3 μg/mL) infused at 80 μL/hour for 23 hours. […]
At 24 hours post infection, bacterial burden in the thigh muscle was determined by plating the tissue homogenate in series dilutions on blood agar plates. […]

[5] = read-out: MIC (μg/mL) E. coli, Table 1 protocol: serial 2-fold dilutions starting from 64 μg/ml, 35° C., 22 hours
[6] = Table 1 protocol: serial 2-fold dilutions starting from 64 μg/ml, 35° C., 22 hours
[7] = read-out: MIC (μg/mL) E. coli, Table 2 modified protocol: serial 2-fold dilutions starting from 4 μg/mL, 35° C., 22 hours
[8] = Table 2 modified protocol: serial 2-fold dilutions starting from 4 μg/mL, 35° C., 22 hours

## CCCCCCCCCCNCCC(=O)N[C@@H](CCCCN)C(=O)N(C)[C@@H]1C(=O)N[C@@H](C)C(=O)N[C@H](C(=O)N[C@@H](C)C(C)=O)Cc2ccc(O)c(c2)-c2cc1ccc2OCCN [Compound 115]
[1]; [5]
  MIC: 19 µg/mL (≈ 22 µM)
[2]
  MIC: 0.63 µg/mL (≈ 0.728 µM)
[3]
  MIC: 0.13 µg/mL (≈ 0.15 µM)
[4]
  bacterial burden in the thigh muscle: greater reduction in bacterial burden

## CCCCCCCCc1ccc(C(=O)N(C)[C@@H]2C(=O)N[C@@H](C)C(=O)N[C@H](C(=O)NCB3O[C@@H]4C[C@@H]5C[C@@H](C5(C)C)[C@]4(C)O3)Cc3ccc(OCCN)c(c3)-c3cc2ccc3OCCN)cc1 [Compound 320]
[1]; [5]
  MIC: 4 µg/mL (≈ 4.41 µM)
[2]
  MIC: 6 µg/mL (≈ 6.62 µM)
[3]
  MIC: 2 µg/mL (≈ 2.21 µM)

## CCCCCCCCc1ccc(C(=O)N[C@@H](CCCN)C(=O)N(C)[C@@H]2C(=O)N[C@@H](C)C(=O)N[C@H](C(=O)N[C@@H](C)B3O[C@@H]4C[C@@H]5C[C@@H](C5(C)C)[C@]4(C)O3)Cc3ccc(OCCN)c(c3)-c3cc2ccc3OCCN)c(C)c1 [Compound 321]
[1]; [5]
  MIC: 0.063 µg/mL (≈ 0.06 µM)
[2]
  MIC: 0.094 µg/mL (≈ 0.0896 µM)
[3]
  MIC: 0.063 µg/mL (≈ 0.06 µM)

## CCCCCCCCc1ccc(C(=O)N[C@@H](CCCN)C(=O)N(C)[C@@H]2C(=O)N[C@@H](C)C(=O)N[C@H](C(=O)N[C@@H](C)B(O)O)Cc3ccc(OCCN)c(c3)-c3cc2ccc3OCCN)c(F)c1 [Compound 322]
[1]; [5]
  MIC: 0.13 µg/mL (≈ 0.141 µM)
[2]; [6]
  MIC: 0.13 µg/mL (≈ 0.141 µM)
[3]; [6]
  MIC: 0.063 µg/mL (≈ 0.0686 µM)

## CCCCCCCCc1ccc(C(=O)N[C@@H](CCCN)C(=O)N(C)[C@@H]2C(=O)N[C@@H](C)C(=O)N[C@H](C(=O)N[C@@H](C)B3O[C@@H]4C[C@@H]5C[C@@H](C5(C)C)[C@]4(C)O3)Cc3ccc(OCCCN)c(c3)-c3cc2ccc3OCCCN)cc1 [Compound 323]
[1]; [7]
  MIC: 0.063 µg/mL (≈ 0.0593 µM)
[2]
  MIC: 0.13 µg/mL (≈ 0.122 µM)
[3]
  MIC: 0.031 µg/mL (≈ 0.0292 µM)

## CCCCCCCCc1ccc(C(=O)N[C@@H](CCCN)C(=O)N(C)[C@@H]2C(=O)N[C@@H](C)C(=O)N[C@H](C(=O)NCB3O[C@@H]4C[C@@H]5C[C@@H](C5(C)C)[C@]4(C)O3)Cc3ccc(OCCN)c(c3)-c3cc2ccc3OCCN)cc1 [Compound 324]
[1]; [7]
  MIC: 0.13 µg/mL (≈ 0.127 µM)
[2]
  MIC: 0.25 µg/mL (≈ 0.245 µM)
[3]
  MIC: 0.13 µg/mL (≈ 0.127 µM)

## CCCCCCCCCCCCCC(=O)N[C@@H](CCN)C(=O)N(C)[C@@H]1C(=O)N[C@@H](C)C(=O)N[C@H](C(=O)N[C@@H](C)B2O[C@@H]3C[C@@H]4C[C@@H](C4(C)C)[C@]3(C)O2)Cc2ccc(OCCN)c(c2)-c2cc1ccc2OCCN [Compound 325]
[1]; [7]
  MIC: 0.13 µg/mL (≈ 0.128 µM)
[2]
  MIC: 0.13 µg/mL (≈ 0.128 µM)
[3]
  MIC: 0.023 µg/mL (≈ 0.0227 µM)

## CCCCCCCCc1ccc(C(=O)N[C@@H](CCCN)C(=O)N(C)[C@@H]2C(=O)N[C@@H](C)C(=O)N[C@H](C(=O)NCB(O)O)Cc3ccc(OCCN)c(c3)-c3cc2ccc3OCCN)cc1 [Compound 326]
[1]; [7]
  MIC: 0.19 µg/mL (≈ 0.214 µM)
[2]; [8]
  MIC: 0.25 µg/mL (≈ 0.282 µM)
[3]; [8]
  MIC: 0.13 µg/mL (≈ 0.147 µM)

## CCCCc1ccc(-c2ccc(C(=O)N[C@@H](CCCN)C(=O)N(C)[C@@H]3C(=O)N[C@@H](C)C(=O)N[C@H](C(=O)NC/C=C/S(C)(=O)=O)Cc4ccc(OCCN)c(c4)-c4cc3ccc4OCCN)cc2)cc1 [Compound 327]
[1]; [7]
  MIC: 0.5 µg/mL (≈ 0.517 µM)
[2]; [8]
  MIC: 0.5 µg/mL (≈ 0.517 µM)
[3]; [8]
  MIC: 0.13 µg/mL (≈ 0.134 µM)

## CCCCc1ccc(-c2ccc(C(=O)N[C@@H](CCCCN)C(=O)N(C)[C@@H]3C(=O)N[C@@H](C)C(=O)N[C@H](C(=O)NCc4nnn[nH]4)Cc4ccc(OCCN)c(c4)-c4cc3ccc4OCCN)cc2)cc1 [Compound 328]
[1]; read-out: MIC (μg/mL) E. coli
  MIC: 0.25 µg/mL (≈ 0.265 µM)
[2]
  MIC: 2 µg/mL (≈ 2.12 µM)
[3]
  MIC: 0.5 µg/mL (≈ 0.529 µM)

## CCCCc1ccc(-c2ccc(C(=O)N[C@@H](CCCCN)C(=O)N(C)[C@@H]3C(=O)N[C@@H](C)C(=O)N[C@H](C(=O)NCc4nnn[nH]4)Cc4ccc(O)c(c4)-c4cc3ccc4OCCN)cc2)cc1 [Compound 329]
[1]; read-out: MIC (μg/mL) E. coli
  MIC: 0.38 µg/mL (≈ 0.421 µM)
[2]
  MIC: > 4 µg/mL
[3]
  MIC: 2 µg/mL (≈ 2.22 µM)

## CC(=O)[C@H](C)NC(=O)[C@@H]1Cc2ccc(OCCO)c(c2)-c2cc(ccc2OCCN)[C@H](N(C)C(=O)[C@H](CCCCN)NC(=O)c2ccc(-c3ccc(Cl)cc3)cc2)C(=O)N[C@@H](C)C(=O)N1 [Compound 330]
[1]; [7]
  MIC: > 4 µg/mL
[2]
  MIC: 3 µg/mL (≈ 3.29 µM)
[3]
  MIC: 1 µg/mL (≈ 1.1 µM)

## CC(=O)[C@H](C)NC(=O)[C@@H]1Cc2ccc(O)c(c2)-c2cc(ccc2OCCn2ccnc2)[C@H](N(C)C(=O)[C@H](CCCCN)NC(=O)c2ccc(-c3ccc(Cl)cc3)cc2)C(=O)N[C@@H](C)C(=O)N1 [Compound 331]
[1]; [5]
  MIC: 8 µg/mL (≈ 8.7 µM)
[2]; [6]
  MIC: 16 µg/mL (≈ 17.4 µM)
[3]; [6]
  MIC: 2 µg/mL (≈ 2.18 µM)

## CC(=O)[C@H](C)NC(=O)[C@@H]1Cc2ccc(O)c(c2)-c2cc(ccc2OCCN2CCN(C)CC2)[C@H](N(C)C(=O)[C@H](CCCCN)NC(=O)c2ccc(-c3ccc(Cl)cc3)cc2)C(=O)N[C@@H](C)C(=O)N1 [Compound 332]
[1]; [5]
  MIC: 64 µg/mL (≈ 67.3 µM)
[2]; [6]
  MIC: 64 µg/mL (≈ 67.3 µM)
[3]; [6]
  MIC: 8 µg/mL (≈ 8.41 µM)

## C[C@@H]1NC(=O)[C@@H](N(C)C(=O)[C@H](CCCCN)NC(=O)c2ccc(-c3ccc(Cl)cc3)cc2)c2ccc(O)c(c2)-c2cc(ccc2O)C[C@@H](C(=O)N[C@@H](C)C(=O)N(C)c2cc[nH]n2)NC1=O [Compound 333]
[1]; [5]
  MIC: 32 µg/mL (≈ 35.3 µM)
[2]; [6]
  MIC: 64 µg/mL (≈ 70.6 µM)
[3]; [6]
  MIC: 16 µg/mL (≈ 17.7 µM)

## CCCCc1ccc(-c2ccc(C(=O)N[C@@H](CCCN)C(=O)N(C)[C@@H]3C(=O)N[C@@H](C)C(=O)N[C@H](C(=O)NCC(=O)O)Cc4ccc(OCCN)c(c4)-c4cc3ccc4OCCN)cc2)cc1 [Compound 334]
[1]; [7]
  MIC: 0.13 µg/mL (≈ 0.143 µM)
[2]; [8]
  MIC: 1 µg/mL (≈ 1.1 µM)
[3]; [8]
  MIC: 0.38 µg/mL (≈ 0.419 µM)

## CCCCc1ccc(-c2ccc(C(=O)N[C@@H](CCCN)C(=O)N(C)[C@@H]3C(=O)N[C@@H](C)C(=O)N[C@H](C(N)=O)Cc4ccc(OCCN)c(c4)-c4cc3ccc4OCCN)cc2)cc1 [Compound 335]
[1]; [7]
  MIC: 0.13 µg/mL (≈ 0.153 µM)
[2]
  MIC: 0.19 µg/mL (≈ 0.224 µM)
[3]
  MIC: 0.063 µg/mL (≈ 0.0742 µM)

## CCCCc1ccc(-c2ccc(C(=O)N[C@@H](CCCN)C(=O)N(C)[C@@H]3C(=O)N[C@@H](C)C(=O)N[C@H](CO)Cc4ccc(OCCN)c(c4)-c4cc3ccc4OCCN)cc2)cc1 [Compound 336]
[1]; [7]
  MIC: 0.25 µg/mL (≈ 0.299 µM)
[2]
  MIC: 0.5 µg/mL (≈ 0.598 µM)
[3]
  MIC: 0.13 µg/mL (≈ 0.155 µM)

## CCCCc1ccc(-c2ccc(C(=O)N[C@@H](CCCN)C(=O)N(C)[C@@H]3C(=O)N[C@@H](C)C(=O)N[C@H](C(=O)NS(C)(=O)=O)Cc4ccc(OCCN)c(c4)-c4cc3ccc4OCCN)cc2)cc1 [Compound 337]
[1]; [7]
  MIC: 0.047 µg/mL (≈ 0.0507 µM)
[2]
  MIC: 2 µg/mL (≈ 2.16 µM)
[3]
  MIC: 0.75 µg/mL (≈ 0.809 µM)

## CCCCc1ccc(-c2ccc(C(=O)N[C@@H](CCCN)C(=O)N(C)[C@@H]3C(=O)N[C@@H](C)C(=O)N[C@H](C(=O)NS(=O)(=O)C(F)(F)F)Cc4ccc(OCCN)c(c4)-c4cc3ccc4OCCN)cc2)cc1 [Compound 338]
[1]; [7]
  MIC: 0.63 µg/mL (≈ 0.642 µM)
[2]; [8]
  MIC: 3 µg/mL (≈ 3.06 µM)
[3]; [8]
  MIC: 2.5 µg/mL (≈ 2.55 µM)

## CCCCCCCCCCNCCC(=O)N[C@@H](CCCCN)C(=O)N(C)[C@@H]1C(=O)N[C@@H](C)C(=O)N[C@H](C(=O)N[C@@H](C)C(C)=O)Cc2ccc(O)c(c2)-c2cc1ccc2OC1O[C@H](CO)[C@@H](O)[C@H](O)[C@H]1N (stereo partly shown) [Compound 339]
[1]; [7]
  MIC: > 4 µg/mL
[2]
  MIC: 2 µg/mL (≈ 2.03 µM)
[3]
  MIC: 1 µg/mL (≈ 1.02 µM)

## CCCCCCCCCCNCCC(=O)N[C@@H](CCCCN)C(=O)N(C)[C@@H]1C(=O)N[C@@H](C)C(=O)N[C@H](C(=O)N[C@@H](C)C(C)=O)Cc2ccc(OC3O[C@H](CO)[C@@H](O)[C@H](O)[C@H]3N)c(c2)-c2cc1ccc2OC1O[C@H](CO)[C@@H](O)[C@H](O)[C@H]1N (stereo partly shown) [Compound 340]
[1]; [7]
  MIC: > 4 µg/mL
[2]
  MIC: > 4 µg/mL
[3]
  MIC: 2 µg/mL (≈ 1.75 µM)
